Assay results: EP4173633B1, “PRODUCTS COMPRISING ESSENTIAL OIL OR EXTRACT WITH PHENOLIC COMPOUNDS OBTAINED FROM THE RESIDUAL WATER OF THE HYDRODISTILLATION OF EUCALYPTUS GLOBULUS LEAVES AND THEIR USES” (RAIZ - Instituto De Investigação Da Floresta E Papel, priority 2021, dated 2023)

Test system: NIH/3T3 fibroblasts
Test: β-gal activity associated with senescence, etoposide-induced
Assay type: cell-based, mouse
Conditions: 12.5 µM etoposide 24 h alone; control 8.86%
Procedure: HaCaT and NIH/3T3 cells were seeded in 12-well plates at a density of 1.5 x 10^5 or 2.5 x 10^4 cells/well, respectively, and adhered for 24 h. Cell senescence was then induced in the HaCaT and NIH/3T3 lines by exposure to 100 µM etoposide (Sigma-Aldrich, St. Louis, MO, USA) for 72 h or 12.5 µM etoposide for 24 h, respectively. After the incubation period, senescent HaCaT and NIH/3T3 cells were treated in the absence or presence of EO (0.16 mg/mL) or HRW (0.8 µg/mL) for 24 h. In the case of NIH/3T3 cells, they were further treated for 24 h with bacterial cellulose membrane extract impregnated with glycerol and 2 µg/cm2 of extract with phenolic compounds obtained from wastewater from hydrodistillation (BC-G-HRW2), prepared from sterile samples (10 cm 2) incubated in 10 ml of DMEM exposure medium. As a control, cells not treated with etoposide were incubated with DMEM exposure medium or similarly prepared BC-G and BC-G-HRW2 membrane extracts. […] Finally, senescent cells were quantified using an inverted microscope (Carl Zeiss, Oberkochen, Germany) at 20x magnification, determining the % of β-gal-positive cells in randomly selected fields in four different images obtained in at least 3 independent experiments performed in duplicate.

COc1cc([C@@H]2c3cc4c(cc3[C@@H](O[C@@H]3O[C@@H]5CO[C@@H](C)O[C@H]5[C@H](O)[C@H]3O)[C@H]3COC(=O)[C@H]23)OCO4)cc(OC)c1O [etoposide]
number of β-gal-positive associated senescent NIH/3T3 cells: 44.11%
